Results taken from ChEMBL document CHEMBL1782000, “Thiazole-based chalcones as potent antimicrobial agents. Synthesis and biological evaluation” (2011).
In brackets after ≈: the same amount, converted by molar mass.

Assays:
Staphylococcus aureus [1] = experiment: Antibacterial activity against Staphylococcus aureus ATCC 6538 after 24 hrs by microdilution method; type: functional; settings: ATCC 6538, 24 h
Pseudomonas aeruginosa [2] = experiment: Antibacterial activity against Pseudomonas aeruginosa ATCC 27853 after 24 hrs by microdilution method; type: functional; settings: ATCC 27853, 24 h
Aspergillus versicolor [3] = experiment: Fungicidal activity against Aspergillus versicolor ATCC 11730 after 72 hrs; type: functional; settings: ATCC 11730, 72 h
Staphylococcus aureus [4] = experiment: Bactericidal activity against Staphylococcus aureus ATCC 6538 after 24 hrs; type: functional; settings: ATCC 6538, 24 h
Bacillus cereus [5] = experiment: Antibacterial activity against Bacillus cereus clinical isolate after 24 hrs by microdilution method; type: functional
Salmonella typhimurium [6] = experiment: Antibacterial activity against Salmonella Typhimurium ATCC 13311 after 24 hrs by microdilution method; type: functional, Salmonella enterica subsp. enterica serovar Typhimurium; settings: Salmonella enterica, ATCC 13311, 24 h
Aspergillus versicolor [7] = experiment: Antifungal activity against Aspergillus versicolor ATCC 11730 after 72 hrs by serial dilution method; type: functional; settings: ATCC 11730, 72 h
Listeria monocytogenes [8] = experiment: Bactericidal activity against Listeria monocytogenes NCTC 7973 after 24 hrs; type: functional; settings: NCTC 7973, 24 h
[9] = tested on: Fusarium sporotrichioides; experiment: Fungicidal activity against Fusarium sporotrichioides IMT 496 after 72 hrs; type: functional; settings: IMT 496, 72 h
Listeria monocytogenes [10] = experiment: Antibacterial activity against Listeria monocytogenes NCTC 7973 after 24 hrs by microdilution method; type: functional; settings: NCTC 7973, 24 h
Aspergillus niger [11] = experiment: Antifungal activity against Aspergillus niger ATCC 6275 after 72 hrs by serial dilution method; type: functional; settings: ATCC 6275, 72 h
[12] = Antifungal activity against Fusarium sporotrichioides IMT 496 after 72 hrs by serial dilution method; type: functional
Enterococcus faecalis [13] = experiment: Antibacterial activity against Enterococcus faecalis isolate obtained from human after 24 hrs by microdilution method; type: functional
Escherichia coli [14] = experiment: Antibacterial activity against Escherichia coli ATCC 35210 after 24 hrs by microdilution method; type: functional; settings: ATCC 35210, 24 h
Micrococcus flavus [15] = experiment: Bactericidal activity against Micrococcus flavus ATCC 10240 after 24 hrs; type: functional; settings: ATCC 10240, 24 h
Penicillium ochrochloron [16] = experiment: Fungicidal activity against Penicillium ochrochloron ATCC 9112 after 72 hrs; type: functional; settings: ATCC 9112, 72 h
Micrococcus flavus [17] = experiment: Antibacterial activity against Micrococcus flavus ATCC 10240 after 24 hrs by microdilution method; type: functional; settings: ATCC 10240, 24 h
Enterococcus faecalis [18] = experiment: Bactericidal activity against Enterococcus faecalis isolate obtained from human after 24 hrs; type: functional
Trichoderma viride [19] = experiment: Fungicidal activity against Trichoderma viride IAM 5061 after 72 hrs; type: functional; settings: IAM 5061, 72 h
Aspergillus fumigatus [20] = experiment: Antifungal activity against Aspergillus fumigatus plant isolate after 72 hrs by serial dilution method; type: functional
Salmonella typhimurium [21] = experiment: Bactericidal activity against Salmonella Typhimurium ATCC 13311 after 24 hrs; type: functional, Salmonella enterica subsp. enterica serovar Typhimurium; settings: Salmonella enterica, ATCC 13311, 24 h
Talaromyces funiculosus [22] = experiment: Antifungal activity against Penicillium funiculosum ATCC 36839 after 72 hrs by serial dilution method; type: functional; settings: ATCC 36839, 72 h
Talaromyces funiculosus [23] = experiment: Fungicidal activity against Penicillium funiculosum ATCC 36839 after 72 hrs; type: functional; settings: ATCC 36839, 72 h
Aspergillus fumigatus [24] = experiment: Fungicidal activity against Aspergillus fumigatus plant isolate after 72 hrs; type: functional
Aspergillus niger [25] = experiment: Fungicidal activity against Aspergillus niger ATCC 6275 after 72 hrs; type: functional; settings: ATCC 6275, 72 h
Escherichia coli [26] = experiment: Bactericidal activity against Escherichia coli ATCC 35210 after 24 hrs; type: functional; settings: ATCC 35210, 24 h
Aspergillus ochraceus [27] = experiment: Antifungal activity against Aspergillus ochraceus ATCC 12066 after 72 hrs by serial dilution method; type: functional; settings: ATCC 12066, 72 h
Bacillus cereus [28] = experiment: Bactericidal activity against Bacillus cereus clinical isolate after 24 hrs; type: functional
Penicillium ochrochloron [29] = experiment: Antifungal activity against Penicillium ochrochloron ATCC 9112 after 72 hrs by serial dilution method; type: functional; settings: ATCC 9112, 72 h
Pseudomonas aeruginosa [30] = experiment: Bactericidal activity against Pseudomonas aeruginosa ATCC 27853 after 24 hrs; type: functional; settings: ATCC 27853, 24 h
Trichoderma viride [31] = experiment: Antifungal activity against Trichoderma viride IAM 5061 after 72 hrs by serial dilution method; type: functional; settings: IAM 5061, 72 h
Aspergillus ochraceus [32] = experiment: Fungicidal activity against Aspergillus ochraceus ATCC 12066 after 72 hrs; type: functional; settings: ATCC 12066, 72 h

Compound | MIC (Staphylococcus aureus [1]) [µM] | MIC (Pseudomonas aeruginosa [2]) [µM] | MFC (Aspergillus versicolor [3]) [µM] | MBC (Staphylococcus aureus [4]) [µM] | MIC (Bacillus cereus [5]) [µM] | MIC (Aspergillus versicolor [7]) [µM] | MFC [9] [µM] | MIC (Aspergillus niger [11]) [µM] | MIC (10'-2 umol/ml) [12] | MFC (Penicillium ochrochloron [16]) [µM] | MFC (Trichoderma viride [19]) [µM] | MIC (Aspergillus fumigatus [20]) [µM] | MIC (Talaromyces funiculosus [22]) [µM] | MFC (Talaromyces funiculosus [23]) [µM] | MFC (Aspergillus fumigatus [24]) [µM] | MFC (Aspergillus niger [25]) [µM] | MIC (Aspergillus ochraceus [27]) [µM] | MIC (Penicillium ochrochloron [29]) [µM] | MIC (Trichoderma viride [31]) [µM] | MFC (Aspergillus ochraceus [32]) [µM] | further results
CNc1nc(C)c(C(=O)/C=C/c2c(Cl)cccc2Cl)s1 | 306 (≈ 100 µg/mL) | 229 (≈ 75 µg/mL) | 459 (≈ 150 µg/mL) | 459 (≈ 150 µg/mL) | 260 (≈ 85 µg/mL) | 306 (≈ 100 µg/mL) | 459 (≈ 150 µg/mL) | 306 (≈ 100 µg/mL) | 15.3 | 459 (≈ 150 µg/mL) | 306 (≈ 100 µg/mL) | 306 (≈ 100 µg/mL) | 306 (≈ 100 µg/mL) | 459 (≈ 150 µg/mL) | 306 (≈ 100 µg/mL) | 612 (≈ 200 µg/mL) | 459 (≈ 150 µg/mL) | 153 (≈ 50 µg/mL) | 153 (≈ 50 µg/mL) | 612 (≈ 200 µg/mL) | MIC (Salmonella typhimurium [6]): 306 µM (≈ 100 µg/mL); MBC (Listeria monocytogenes [8]): 459 µM (≈ 150 µg/mL); MIC (Listeria monocytogenes [10]): 306 µM (≈ 100 µg/mL); MIC (Enterococcus faecalis [13]): 153 µM (≈ 50 µg/mL); MIC (Escherichia coli [14]): 229 µM (≈ 75 µg/mL); MBC (Micrococcus flavus [15]): 306 µM (≈ 100 µg/mL); MIC (Micrococcus flavus [17]): 229 µM (≈ 75 µg/mL); MBC (Enterococcus faecalis [18]): 306 µM (≈ 100 µg/mL); MBC (Salmonella typhimurium [21]): 306 µM (≈ 100 µg/mL); MBC (Escherichia coli [26]): 306 µM (≈ 100 µg/mL); MBC (Bacillus cereus [28]): 306 µM (≈ 100 µg/mL); MBC (Pseudomonas aeruginosa [30]): 306 µM (≈ 100 µg/mL)
CNc1nc(C)c(C(=O)/C=C/c2ccc(Cl)cc2Cl)s1 | 306 (≈ 100 µg/mL) | 306 (≈ 100 µg/mL) | 612 (≈ 200 µg/mL) | 459 (≈ 150 µg/mL) | 229 (≈ 75 µg/mL) | 153 (≈ 50 µg/mL) | 306 (≈ 100 µg/mL) | 459 (≈ 150 µg/mL) | 15.3 | 612 (≈ 200 µg/mL) | 306 (≈ 100 µg/mL) | 153 (≈ 50 µg/mL) | 153 (≈ 50 µg/mL) | 306 (≈ 100 µg/mL) | 612 (≈ 200 µg/mL) | 612 (≈ 200 µg/mL) | 306 (≈ 100 µg/mL) | 306 (≈ 100 µg/mL) | 153 (≈ 50 µg/mL) | 612 (≈ 200 µg/mL) | MIC (Salmonella typhimurium [6]): 229 µM (≈ 75 µg/mL); MBC (Listeria monocytogenes [8]): 459 µM (≈ 150 µg/mL); MIC (Listeria monocytogenes [10]): 306 µM (≈ 100 µg/mL); MIC (Enterococcus faecalis [13]): 306 µM (≈ 100 µg/mL); MIC (Escherichia coli [14]): 306 µM (≈ 100 µg/mL); MBC (Micrococcus flavus [15]): 459 µM (≈ 150 µg/mL); MIC (Micrococcus flavus [17]): 306 µM (≈ 100 µg/mL); MBC (Enterococcus faecalis [18]): 459 µM (≈ 150 µg/mL); MBC (Salmonella typhimurium [21]): 306 µM (≈ 100 µg/mL); MBC (Escherichia coli [26]): 459 µM (≈ 150 µg/mL); MBC (Bacillus cereus [28]): 306 µM (≈ 100 µg/mL); MBC (Pseudomonas aeruginosa [30]): 306 µM (≈ 100 µg/mL)
CNc1nc(C)c(C(=O)/C=C/c2ccccc2)s1 | 388 (≈ 100 µg/mL) | 291 (≈ 75.1 µg/mL) | 581 (≈ 150 µg/mL) | 581 (≈ 150 µg/mL) | 388 (≈ 100 µg/mL) | 194 (≈ 50.1 µg/mL) | 388 (≈ 100 µg/mL) | 388 (≈ 100 µg/mL) | 38.8 | 775 (≈ 200 µg/mL) | 388 (≈ 100 µg/mL) | 388 (≈ 100 µg/mL) | 388 (≈ 100 µg/mL) | 581 (≈ 150 µg/mL) | 581 (≈ 150 µg/mL) | 775 (≈ 200 µg/mL) | 388 (≈ 100 µg/mL) | 194 (≈ 50.1 µg/mL) | 194 (≈ 50.1 µg/mL) | 581 (≈ 150 µg/mL) | MIC (Salmonella typhimurium [6]): 329 µM (≈ 85.1 µg/mL); MBC (Listeria monocytogenes [8]): 581 µM (≈ 150 µg/mL); MIC (Listeria monocytogenes [10]): 388 µM (≈ 100 µg/mL); MIC (Enterococcus faecalis [13]): 194 µM (≈ 50 µg/mL); MIC (Escherichia coli [14]): 329 µM (≈ 85.1 µg/mL); MBC (Micrococcus flavus [15]): 388 µM (≈ 100 µg/mL); MIC (Micrococcus flavus [17]): 194 µM (≈ 50 µg/mL); MBC (Enterococcus faecalis [18]): 388 µM (≈ 100 µg/mL); MBC (Salmonella typhimurium [21]): 388 µM (≈ 100 µg/mL); MBC (Escherichia coli [26]): 388 µM (≈ 100 µg/mL); MBC (Bacillus cereus [28]): 581 µM (≈ 150 µg/mL); MBC (Pseudomonas aeruginosa [30]): 388 µM (≈ 100 µg/mL)
c1ccc(-c2ccc(C(c3ccccc3)n3ccnc3)cc2)cc1 (centres undefined) [BIFONAZOLE] | – | – | 1610 (≈ 500 µg/mL) | – | – | 25.1 (≈ 7.79 µg/mL) | 806 (≈ 250 µg/mL) | 50.3 (≈ 15.6 µg/mL) | 8.06 | 1610 (≈ 500 µg/mL) | 1610 (≈ 500 µg/mL) | 3.2 (≈ 0.993 µg/mL) | 1610 (≈ 500 µg/mL) | 2420 (≈ 750 µg/mL) | 61.2 (≈ 19 µg/mL) | 201 (≈ 62.5 µg/mL) | 403 (≈ 125 µg/mL) | 403 (≈ 125 µg/mL) | 806 (≈ 250 µg/mL) | 806 (≈ 250 µg/mL) | –
CC1(C)S[C@@H]2[C@H](NC(=O)[C@H](N)c3ccccc3)C(=O)N2[C@H]1C(=O)O [AMPICILLIN] | 248 (≈ 86.6 µg/mL) | 248 (≈ 86.6 µg/mL) | – | 372 (≈ 130 µg/mL) | 248 (≈ 86.6 µg/mL) | – | – | – | – | – | – | – | – | – | – | – | – | – | – | – | MIC (Salmonella typhimurium [6]): 248 µM (≈ 86.6 µg/mL); MBC (Listeria monocytogenes [8]): 372 µM (≈ 130 µg/mL); MIC (Listeria monocytogenes [10]): 248 µM (≈ 86.6 µg/mL); MIC (Enterococcus faecalis [13]): 248 µM (≈ 86.6 µg/mL); MIC (Escherichia coli [14]): 248 µM (≈ 86.6 µg/mL); MBC (Micrococcus flavus [15]): 372 µM (≈ 130 µg/mL); MIC (Micrococcus flavus [17]): 248 µM (≈ 86.6 µg/mL); MBC (Enterococcus faecalis [18]): 372 µM (≈ 130 µg/mL); MBC (Salmonella typhimurium [21]): 372 µM (≈ 130 µg/mL); MBC (Escherichia coli [26]): 372 µM (≈ 130 µg/mL); MBC (Bacillus cereus [28]): 372 µM (≈ 130 µg/mL); MBC (Pseudomonas aeruginosa [30]): 372 µM (≈ 130 µg/mL)
CC(=O)N1CCN(c2ccc(OCC3COC(Cn4ccnc4)(c4ccc(Cl)cc4Cl)O3)cc2)CC1 (centres undefined) [KETOCONAZOLE] | – | – | 47 (≈ 25 µg/mL) | – | – | 18.8 (≈ 9.99 µg/mL) | 188 (≈ 99.9 µg/mL) | 282 (≈ 150 µg/mL) | 9.42 | 47 (≈ 25 µg/mL) | 188 (≈ 99.9 µg/mL) | 47 (≈ 25 µg/mL) | 9.4 (≈ 5 µg/mL) | 18.8 (≈ 9.99 µg/mL) | 94.2 (≈ 50.1 µg/mL) | 470 (≈ 250 µg/mL) | 47 (≈ 25 µg/mL) | 18.8 (≈ 9.99 µg/mL) | 94.2 (≈ 50.1 µg/mL) | 94.2 (≈ 50.1 µg/mL) | –
